According to paper PMC11702208 (RSC Advances, 2025):
Several values for one entry are separate records, joined by “and”; a condition that tells them apart may be missing. Equal values may be shown once. Read-outs that look alike come from different tables or passages of the source.

What was measured:
[1] = tested on: CCRF-CEM; test: NCI cytotoxicity screen; format: cell-based, human
[2] = tested on: MOLT-4; test: NCI cytotoxicity screen; format: cell-based, human
[3] = tested on: RPMI-8226; test: NCI cytotoxicity screen; format: cell-based, human
[4] = tested on: A549/ATCC; test: NCI cytotoxicity screen; format: cell-based, human
[5] = tested on: EKVX; test: NCI cytotoxicity screen; format: cell-based, human
[6] = tested on: HOP-92; test: NCI cytotoxicity screen; format: cell-based, human; settings: 10.0 μM one dose
[7] = tested on: NCI-H226; test: NCI cytotoxicity screen; format: cell-based, human
[8] = tested on: NCI-H23; test: NCI cytotoxicity screen; format: cell-based, human
[9] = tested on: NCI-H460; test: NCI cytotoxicity screen; format: cell-based, human
[10] = tested on: NCI-H522; test: NCI cytotoxicity screen; format: cell-based, human
[11] = tested on: HCC-2998; test: NCI cytotoxicity screen; format: cell-based, human
[12] = tested on: HCT-116; test: NCI cytotoxicity screen; format: cell-based, human
[13] = tested on: HCT-15; test: NCI cytotoxicity screen; format: cell-based, human
[14] = tested on: KM12; test: NCI cytotoxicity screen; format: cell-based, human
[15] = tested on: SW-620; test: NCI cytotoxicity screen; format: cell-based, human
[16] = tested on: SF-539; test: NCI cytotoxicity screen; format: cell-based, human
[17] = tested on: SNB-75; test: NCI cytotoxicity screen; format: cell-based, human
[18] = tested on: U251; test: NCI cytotoxicity screen; format: cell-based, human; settings: U-251
[19] = tested on: LOX IMVI; test: NCI cytotoxicity screen; format: cell-based, human
[20] = tested on: M14; test: NCI cytotoxicity screen; format: cell-based, human
[21] = tested on: MDA-MB-435; test: NCI cytotoxicity screen; format: cell-based, human
[22] = tested on: SK-MEL-2; test: NCI cytotoxicity screen; format: cell-based, human
[23] = tested on: SK-MEL-28; test: NCI cytotoxicity screen; format: cell-based, human
[24] = tested on: SK-MEL-5; test: NCI cytotoxicity screen; format: cell-based, human
[25] = tested on: UACC-257; test: NCI cytotoxicity screen; format: cell-based, human
[26] = tested on: IGROV1; test: NCI cytotoxicity screen; format: cell-based, human
[27] = tested on: OVCAR-3; test: NCI cytotoxicity screen; format: cell-based, human
[28] = tested on: OVCAR-4; test: NCI cytotoxicity screen; format: cell-based, human
[29] = tested on: OVCAR-8; test: NCI cytotoxicity screen; format: cell-based, human
[30] = tested on: NCI/ADR-RES; test: NCI cytotoxicity screen; format: cell-based, human
[31] = tested on: SK-OV-3; test: NCI cytotoxicity screen; format: cell-based, human
[32] = tested on: 786-0; test: NCI cytotoxicity screen; format: cell-based, human
[33] = tested on: ACHN; test: NCI cytotoxicity screen; format: cell-based, human
[34] = tested on: RXF 393; test: NCI cytotoxicity screen; format: cell-based, human
[35] = tested on: DU-145; test: NCI cytotoxicity screen; format: cell-based, human
[36] = tested on: MCF7; test: NCI cytotoxicity screen; format: cell-based, human
[37] = tested on: MDA-MB-231/ATCC; test: NCI cytotoxicity screen; format: cell-based, human
[38] = tested on: T-47D; test: NCI cytotoxicity screen; format: cell-based, human
[39] = tested on: NSC lung cancer subpanel tumor cell lines; test: NCI cytotoxicity screen, subpanel; format: cell-based, human
[40] = tested on: Colon cancer subpanel tumor cell lines; test: NCI cytotoxicity screen, subpanel; format: cell-based, human
[41] = tested on: Melanoma subpanel tumor cell lines; test: NCI cytotoxicity screen, subpanel; format: cell-based, human
[42] = tested on: Breast cancer subpanel tumor cell lines; test: NCI cytotoxicity screen, subpanel; format: cell-based, human
[43] = tested on: 59 cancer cell lines; test: NCI cytotoxicity screen, full panel; format: cell-based, human
[44] = tested on: HL-60(TB); test: cells; settings: Homo sapiens
[45] = subpanel value, NSC lung cancer

**Q.** Which results are given for CCN(CC)c1ccc(C=NNC(=O)CSc2nc3ccccc3c(=O)n2Cc2ccc(S(N)(=O)=O)cc2)c(O)c1 [Compound 5, 4-((2-((2-(2-(4-(Diethylamino)-2-hydroxybenzylidene)hydrazineyl)-2-oxoethyl)thio)-4-oxoquinazolin-3(4H)-yl)methyl)benzenesulfonamide]?
**A.** GI % ([1]; 10.0 μM one dose): 90%; GI50 ([1]; Homo sapiens): 196 nM; GI % ([2]; 10.0 μM one dose): 89%; GI50 ([2]; Homo sapiens): 372 nM; GI % ([3]; 10.0 μM one dose): 83%; GI50 ([3]; Homo sapiens): 521 nM; GI % ([4]; 10.0 μM one dose, A549/ATCC): 71%; GI50 ([4]; Homo sapiens, A549): 1570 nM; GI % ([5]; 10.0 μM one dose): 65%; GI50 ([5]; Homo sapiens): 650 nM; GI % [6]: 42%; GI % ([7]; 10.0 μM one dose): 69%; GI50 ([7]; Homo sapiens): 894 nM; GI % ([8]; 10.0 μM one dose): 61%; GI50 ([8]; Homo sapiens): 1960 nM; GI % ([9]; 10.0 μM one dose): 94%; GI50 ([9]; Homo sapiens): 424 nM; GI % ([10]; 10.0 μM one dose): 126%; GI50 ([10]; Homo sapiens): 2400 nM; GI % ([11]; 10.0 μM one dose, HCC-2998): 80%; GI50 ([11]; Homo sapiens, HCC 2998): 882 nM; GI % ([12]; 10.0 μM one dose): 79%; GI50 ([12]; Homo sapiens): 363 nM; GI % ([13]; 10.0 μM one dose): 53%; GI50 ([13]; Homo sapiens): 3.62 µM; GI % ([14]; 10.0 μM one dose, KM-12): 85%; GI50 ([14]; Homo sapiens, KM12): 569 nM; GI % ([15]; 10.0 μM one dose): 79%; GI50 ([15]; Homo sapiens): 949 nM; GI % ([16]; 10.0 μM one dose): 72%; GI50 ([16]; Homo sapiens): 1260 nM; GI % ([17]; 10.0 μM one dose): 62%; GI50 ([17]; Homo sapiens): 2860 nM; GI % ([18]; 10.0 μM one dose): 76%; GI50 ([18]; Homo sapiens): 510 nM; GI % ([19]; 10.0 μM one dose): 99%; GI50 ([19]; Homo sapiens): 387 nM; GI % ([20]; 10.0 μM one dose): 96%; GI50 ([20]; Homo sapiens): 452 nM; GI % ([21]; 10.0 μM one dose): 87%; GI50 ([21]; Homo sapiens): 2070 nM; GI % ([22]; 10.0 μM one dose): 90%; GI50 ([22]; Homo sapiens): 2410 nM; GI % ([23]; 10.0 μM one dose): 67%; GI50 ([23]; Homo sapiens): 1620 nM; GI % ([24]; 10.0 μM one dose): 95%; GI50 ([24]; Homo sapiens): 1570 nM; GI % ([25]; 10.0 μM one dose): 87%; GI50 ([25]; Homo sapiens): 3.03 µM; GI % ([26]; 10.0 μM one dose, IGROV1): 74%; GI50 ([26]; Homo sapiens, IGROV-1): 785 nM; GI % ([27]; 10.0 μM one dose, IGROV-3): 85%; GI50 ([27]; Homo sapiens, OVCAR-3): 287 nM; GI % ([28]; 10.0 μM one dose, IGROV-4): 88%; GI50 ([28]; Homo sapiens, OVCAR-4): 311 nM; GI % ([29]; 10.0 μM one dose): 80%; GI50 ([29]; Homo sapiens): 932 nM; GI % ([30]; 10.0 μM one dose): 13%; GI50 ([30]; Homo sapiens, five-dose): > 100 µM; GI % ([31]; 10.0 μM one dose): 79%; GI50 ([31]; Homo sapiens): 1320 nM; GI % ([32]; 10.0 μM one dose): 68%; GI50 ([32]; Homo sapiens): 1840 nM; GI % ([33]; 10.0 μM one dose): 67%; GI50 ([33]; Homo sapiens): 1580 nM; GI % ([34]; 10.0 μM one dose): 58%; GI50 ([34]; Homo sapiens): 2500 nM; GI % ([35]; 10.0 μM one dose): 62%; GI50 ([35]; Homo sapiens): 944 nM; GI % ([36]; 10.0 μM one dose, MCF-7): 87%; GI50 ([36]; Homo sapiens, MCF7): 457 nM; GI % ([37]; 10.0 μM one dose, MDA-MB-231/ATCC): 75%; GI50 ([37]; Homo sapiens, MDA-MB-231): 643 nM; GI % ([38]; 10.0 μM one dose, T-47D): 94%; GI50 ([38]; Homo sapiens, T47D): 925 nM; CC50 ([39]; Homo sapiens, read-out: LC50): > 100 µM; GI50 ([39]; Homo sapiens, subpanel value, NSC lung cancer): 1100 nM; GI50 [39, 45]: 1060 nM; TGI [39, 45]: c (Compounds showed values > 100 μM); CC50 ([40]; Homo sapiens, read-out: LC50): > 100 µM; GI50 ([40]; Homo sapiens, subpanel value, Colon cancer): 1600 nM; GI50 ([40]; subpanel value, Colon cancer): 1560 nM; TGI ([40]; subpanel value, Colon cancer): c (Compounds showed values > 100 μM); CC50 ([41]; Homo sapiens, read-out: LC50): > 100 µM; GI50 ([41]; Homo sapiens, subpanel value, Melanoma): 1500 nM; GI50 ([41]; subpanel value, Melanoma): 1500 nM; TGI ([41]; subpanel value, Melanoma): 59.09 µM; CC50 ([42]; Homo sapiens, read-out: LC50): > 100 µM; GI50 ([42]; Homo sapiens, subpanel value, Breast cancer): 1200 nM; GI50 ([42]; subpanel value, Breast cancer): 1230 nM; TGI ([42]; subpanel value, Breast cancer): 84.17 µM; MG% (mean growth percent) ([43]; 10.0 μM one dose, 59 cell lines): 23.5% and 23.46%; GI50 ([43]; Homo sapiens, read-out: GI50 MG_MID, full panel mean-graph midpoint): 1000 nM; CC50 ([43]; Homo sapiens, read-out: LC50 MG_MID, full panel mean-graph midpoint): > 100 µM; TGI MG_MID ([43]; full panel mean-graph midpoint): 89.2 µM and 89.24 µM; GI50 ([43]; read-out: GI50 MG_MID, full panel mean-graph midpoint): 1100 nM; CC50 ([43]; read-out: LC50 MG_MID, full panel mean-graph midpoint): > 100 µM; GI50 [44]: 412 nM
